The structures appear in SMILES notation.

One test addresses T1, GLUT1 (Homo sapiens, UniProt P11166).
T1 sequence (P11166 1-492): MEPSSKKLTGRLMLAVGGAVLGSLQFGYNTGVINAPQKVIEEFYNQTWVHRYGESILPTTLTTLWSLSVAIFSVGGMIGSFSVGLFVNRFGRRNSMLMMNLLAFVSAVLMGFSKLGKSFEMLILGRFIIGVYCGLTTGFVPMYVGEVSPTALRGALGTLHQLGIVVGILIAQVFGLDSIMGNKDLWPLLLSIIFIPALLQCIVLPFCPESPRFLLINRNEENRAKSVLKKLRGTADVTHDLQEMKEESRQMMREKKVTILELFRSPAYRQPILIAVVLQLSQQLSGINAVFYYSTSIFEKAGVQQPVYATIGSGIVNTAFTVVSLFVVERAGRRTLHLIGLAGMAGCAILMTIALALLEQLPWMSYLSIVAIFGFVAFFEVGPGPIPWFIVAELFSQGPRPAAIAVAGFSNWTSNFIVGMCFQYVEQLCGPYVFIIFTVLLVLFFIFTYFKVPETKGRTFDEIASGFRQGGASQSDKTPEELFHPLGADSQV
In words: Indirect measurement of GLUT1 activity by quantification of intracellular ATP levels (glucose induced ATP increase). It counts as cell-based. Conditions: DLD1 cells; 0.1 mM glucose, 1 μM Rotenone, 15 min; CellTiter-Glo ATP readout; IC50 values standardized to cytochalasin B IC50 values; read-out: IC50 regarding glucose induced ATP increase (GLUT1 inhibition). Details: endogenous in cells; host or cells: DLD1 or CHO-K1. The method, boiled down: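 DLD1 or CHO-K1 cells were starved overnight in glucose-free medium with 1% FCS, then combined with an oxidative phosphorylation inhibitor. GLUT1 activity was read as glucose-induced ATP increase, GLUT2 as fructose-induced. Intracellular ATP was quantified by CellTiter-Glo luminescence.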
Background: ATP-based viability assays read luminescence as a measure of living cells.
On to `Cc1nn(Cc2ccc(F)cc2)c(C)c1NC(=O)c1cc(C(F)(F)F)nc2ccccc12` [Example 181, N-[1-(4-fluorobenzyl)-3,5-dimethyl-1H-pyrazol-4-yl]-2-(trifluoromethyl)quinoline-4-carboxamide], for which the IC50 – broadly, the concentration needed to halve the response being measured – was determined as 0.0938 µM.

Still in this test, the particulars now being: read-out: IC50 regarding glucose induced ATP increase (GLUT1 inhibition).
In the case of `Cc1nn(CC2CCCCC2)c(C)c1NC(=O)c1cc(C(F)(F)F)nc2ccc(Br)cc12` [Example 170, 6-bromo-N-[1-(cyclohexylmethyl)-3,5-dimethyl-1H-pyrazol-4-yl]-2-(trifluoromethyl)quinoline-4-carboxamide], the IC50 turned out to be 0.0544 µM.

In the case of `Cc1nn(Cc2cccnc2)c(C)c1NC(=O)c1cc(C(F)(F)F)nc2ccc(Br)cc12` [Example 171, 6-bromo-N-[3,5-dimethyl-1-(pyridin-3-ylmethyl)-1H-pyrazol-4-yl]-2-(trifluoromethyl)quinoline-4-carboxamide], the 50% inhibitory concentration (IC50) stood at 0.0571 µM.

Consider `CNC(=O)c1cc(C(=O)Nc2c(C)nn(Cc3ccc(F)cc3)c2C)c2ccccc2n1` [Example 172, N^4-[1-(4-fluorobenzyl)-3,5-dimethyl-1H-pyrazol-4-yl]-N^2-methylquinoline-2,4-dicarboxamide], for which the half-inhibitory concentration (IC50) came out at 0.0591 µM.

Consider `Cc1nn(Cc2ccc(F)c(F)c2)c(C)c1NC(=O)c1cc(C(F)(F)F)nc2cccc(F)c12` [Example 173, N-[1-(3,4-difluorobenzyl)-3,5-dimethyl-1H-pyrazol-4-yl]-5-fluoro-2-(trifluoromethyl)quinoline-4-carboxamide], for which the half-maximal inhibitory concentration (IC50) is 0.0652 µM.

For `Cc1nn(Cc2ccc(F)c(F)c2)c(C)c1NC(=O)c1cc(C(F)(F)F)nc2ccc(F)cc12` [Example 174, N-[1-(3,4-difluorobenzyl)-3,5-dimethyl-1H-pyrazol-4-yl]-6-fluoro-2-(trifluoromethyl)quinoline-4-carboxamide], the IC50 was 0.0696 µM.

As for `Cc1nn(Cc2ccccc2C#N)c(C)c1NC(=O)c1cc(C(F)(F)F)nc2cc(F)c(F)cc12` [Example 175, N-[1-(2-cyanobenzyl)-3,5-dimethyl-1H-pyrazol-4-yl]-6,7-difluoro-2-(trifluoromethyl)quinoline-4-carboxamide], the half-inhibitory concentration (IC50) amounted to 0.0707 µM.

As to `CCN(C(=O)c1cc(C(F)(F)F)nc2ccc(Br)cc12)c1c(C)nn(Cc2ccc(F)cc2)c1C` [Example 176, 6-bromo-N-ethyl-N-[1-(4-fluorobenzyl)-3,5-dimethyl-1H-pyrazol-4-yl]-2-(trifluoromethyl)quinoline-4-carboxamide], the 50% inhibitory concentration (IC50) turned out to be 0.0722 µM.

For the compound `Cc1nn(Cc2ccc(F)c(F)c2)c(C)c1NC(=O)c1cc(C(F)(F)F)nc2cc(F)c(F)cc12` [Example 177, N-[1-(3,4-difluorobenzyl)-3,5-dimethyl-1H-pyrazol-4-yl]-6,7-difluoro-2-(trifluoromethyl)quinoline-4-carboxamide], the IC50 turned out to be 0.0739 µM.

Consider `CNC(=O)c1cc(C(=O)Nc2c(C(F)(F)F)nn(Cc3ccc(F)cc3)c2C)c2ccccc2n1` [Example 178, N^4-[1-(4-fluorobenzyl)-5-methyl-3-(trifluoromethyl)-1H-pyrazol-4-yl]-N2-methylquinoline-2,4-dicarboxamide], for which the IC50 was 0.0785 µM.

`Cc1c(NC(=O)c2cc(C(F)(F)F)nc3ccc(Br)cc23)c(C(F)(F)F)nn1Cc1ccc(F)cc1F` [Example 179, 6-bromo-N-[1-(2,4-difluorobenzyl)-5-methyl-3-(trifluoromethyl)-1H-pyrazol-4-yl]-2-(trifluoromethyl)quinoline-4-carboxamide]: the IC50 amounted to 0.0785 µM.

Consider `Cc1nn(Cc2ccc(Cl)s2)c(C)c1NC(=O)c1cc(C(F)(F)F)nc2ccc(Br)cc12` [Example 180, 6-bromo-N-{1-[(5-chlorothiophen-2-yl)methyl]-3,5-dimethyl-1H-pyrazol-4-yl}-2-(trifluoromethyl)quinoline-4-carboxamide], for which the concentration for half-maximal inhibition (IC50) is 0.0937 µM.

Consider `Cc1c(NC(=O)c2cc(C(F)(F)F)nc3cc(F)c(F)cc23)c(C(F)(F)F)nn1Cc1ccc(C#N)cc1` [Example 182, N-[1-(4-cyanobenzyl)-5-methyl-3-(trifluoromethyl)-1H-pyrazol-4-yl]-6,7-difluoro-2-(trifluoromethyl)quinoline-4-carboxamide], for which the 50% inhibitory concentration (IC50) is 0.101 µM.
